The results in this text go back to patent US12599560B2, “Lipids and lipid nanoparticle formulations” (Longuide Biopharma Corporation, priority 2023, dated 2026).

The subject of one data set is mice. As to the kind of experiment: In vivo delivery of FLuc-mRNA lipid nanoparticle preparations in mice (IVIS imaging). The arrangement: In vivo IVIS / In vivo IVIS (liver) / In vivo IVIS (spleen): unit not given here. The protocol: 7. In Vivo Delivery of the Nucleic Acid Lipid Nanoparticle Preparations in Mice After the preparation was completed, the preparation was injected intramuscularly (mice rectus femoris muscle of the thigh) or intravenously (mice tail vein), with approximately 75 μL per mouse, for a total of 3 mice. After a certain time of injection, in vivo imaging (PerkinElmer, IVIS Lumina III) was performed. 10-15 minutes before imaging, 200 μL of 15 mg/mL D-Luciferin working solution was injected intraperitoneally, and the imaging analysis was performed using an in vivo imager.

Data set [1] in a line: Particle size and PDI by dynamic light scattering. The format is physicochemical. The note with it: Table 2; for Particle size (nm): LNP formulation with mRNA; for PDI: polydispersity value. The protocol: The 7.5 μL nucleic acid lipid nanoparticle solution (containing approximately 0.04 mg/mL mRNA) was taken and added with 200 μL ultrapure water, mixed by gentle blowing using a pipette tip, and the particle size of the nanopreparation was detected by dynamic lightscattering (DLS) using a Malvern Dynamic Light Scattering Instrument (Malvern Instruments Ltd., ZEN3700, UK). 27.5 μL nucleic acid lipid nanoparticle solution (containing about 0.04 mg/mL mRNA) was taken and added with 200 μL ultrapure water. A pipette tip was used to gently blow the sample and mix well. The particle size of the nanopreparation was detected by Malvern Dynamic Light Scattering Instrument (Malvern Instruments Ltd., ZEN3700, UK). After the detection, the sample was recovered to an EP tube, and 600 μL of ultrapure water was added, gently blown with a pipette tip, and the potential of the nanopreparation was measured by a Malvern particle size meter.

[2] abbreviates: Table 2, IV, whole body scan, molar ratio DMG-PEG2000:DSPC:Chol:Lipid and N/P.
Setting [3] is: molar ratio 1.09:8.66:30.25:60.00, N/P 21.
The mark [4] stands for this setting: molar ratio 1.40:11.15:38.95:48.50, N/P 21.
[5] abbreviates: molar ratio 1.09:8.66:30.25:60.00, N/P 30.
Where [6] appears, read: molar ratio 1.40:11.15:38.95:48.50, N/P 30.
Where [7] appears, read: molar ratio 1.40:11.15:38.95:48.50, N/P 24.
Setting [8] is: molar ratio 1.63:12.99:45.38:40.00, N/P 24.
The mark [9] stands for this setting: molar ratio 1.09:8.66:30.25:60.00, N/P 50.
Setting [10] is: molar ratio 1.40:11.15:38.95:48.50, N/P 50.
[11] abbreviates: molar ratio 0.95:7.58:26.47:65.00, N/P 30.
Where [12] appears, read: molar ratio 1.09:8.66:30.25:60.00, N/P 20.
Where [13] appears, read: molar ratio 1.40:11.15:38.95:48.50, N/P 10.

Consider `CCCCCCCCCCNC(=O)C(O)CN1CCN(CCN(CC(O)C(=O)NCCCCCCCCCC)CC(O)C(=O)NCCCCCCCCCC)CC1` (stereo not shown) [Compound L0180], for which the “In vivo IVIS” value with mice (Table 2, IM, whole body scan) is 1.10 × 10^7; with mice (setting [2]), 3.15 × 10^6. Besides, the “Particle size (nm)” value in data set [1] (setting [3]) was 84.26 ± 0.81 nm; in data set [1] (setting [4]), 86.34 ± 1.35 nm. Further, the PDI was 0.13 ± 0.01 in data set [1] (setting [3]) and 0.18 ± 0.01 in data set [1] (setting [4]).

As for `CCCCCCCCCCCCNC(=O)C(O)CN1CCN(CCN(CC(O)C(=O)NCCCCCCCCCCCC)CC(O)C(=O)NCCCCCCCCCCCC)CC1` (stereo not shown) [Compound L0181], the “In vivo IVIS” value with mice (Table 2, IM, whole body scan) was 3.37 × 10^6. For the same molecule, in data set [1], the “Particle size (nm)” value is listed as 71.39 ± 0.26 nm and the PDI is reported as 0.16 ± 0.02.

As to `CCCCCCCCCCOC(=O)C(O)CN1CCN(CCN(CC(O)C(=O)OCCCCCCCCCC)CC(O)C(=O)OCCCCCCCCCC)CC1` (stereo not shown) [Compound L0182], the “In vivo IVIS” value in the data set on mice (Table 2, IM, whole body scan) is recorded as 3.25 × 10^7; with mice (setting [2]) it was 4.99 × 10^6. Also, the “Particle size (nm)” value in data set [1] (setting [5]) is listed as 89.38 ± 0.09 nm; in data set [1] (setting [6]), 83.26 ± 0.68 nm. The PDI in data set [1] (setting [5]) is 0.16 ± 0.01; in data set [1] (setting [6]) it was 0.14 ± 0.01.

For the molecule `CCCCCCCCCCCCOC(=O)C(O)CN1CCN(CCN(CC(O)C(=O)OCCCCCCCCCCCC)CC(O)C(=O)OCCCCCCCCCCCC)CC1` (stereo not shown) [Compound L0183], the “In vivo IVIS” value is 2.37 × 10^7 with mice (Table 2, IM, whole body scan) and 5.98 × 10^7 with mice (setting [2]). For the same molecule, the “Particle size (nm)” value in data set [1] (setting [7]) is on record as 75.73 ± 0.33 nm; in data set [1] (setting [8]), 94.49 ± 1.06 nm. Also, the results for the PDI in data set [1] (setting [7]) and in data set [1] (setting [8]) were 0.14 ± 0.01 and 0.16 ± 0.01, respectively.

Regarding `CCCCCCOCOCCCCCCOC(=O)C(O)CN1CCN(CCN(CC(O)C(=O)OCCCCCCOCOCCCCCC)CC(O)C(=O)OCCCCCCOCOCCCCCC)CC1` (stereo not shown) [Compound L0184], the “In vivo IVIS” value in the data set on mice (Table 2, IM, whole body scan) was 4.88 × 10^6; with mice (setting [2]), 1.17 × 10^8. Further, the “Particle size (nm)” value in data set [1] (setting [9]) is 128.20 ± 0.95 nm; in data set [1] (setting [10]), 119.60 ± 0.40 nm. Further, the PDI in data set [1] (setting [9]) is listed as 0.09 ± 0.01; in data set [1] (setting [10]), 0.06 ± 0.00.

On to `CCCCCCCCCCSSCCOC(=O)C(O)CN1CCN(CCN(CC(O)C(=O)OCCSSCCCCCCCCCC)CC(O)C(=O)OCCSSCCCCCCCCCC)CC1` (stereo not shown) [Compound L0185], for which the “In vivo IVIS” value in the data set on mice (Table 2, IM, whole body scan) is recorded as 2.52 × 10^7; with mice (setting [2]), 2.72 × 10^6. The “Particle size (nm)” value in data set [1] (setting [11]) is recorded as 94.35 ± 0.52 nm; in data set [1] (setting [6]), 84.46 ± 1.39 nm. The figures for the PDI in data set [1] (setting [11]) and in data set [1] (setting [6]) were 0.13 ± 0.02 and 0.20 ± 0.00, respectively.

Regarding `CCCCCCCCC(CCCCCC)C(=O)OCCCCCCOC(=O)C(O)CN1CCN(CCN(CC(O)C(=O)OCCCCCCOC(=O)C(CCCCCC)CCCCCCCC)CC(O)C(=O)OCCCCCCOC(=O)C(CCCCCC)CCCCCCCC)CC1` (stereo not shown) [Compound L0188], in the data set with mice (Table 2, IM, whole body scan), the “In vivo IVIS” value is reported as 1.87 × 10^7. In the data set on mice (Table 2, IV), the “In vivo IVIS (liver)” value is listed as 4.17 × 10^7 and the “In vivo IVIS (spleen)” value is 4.65 × 10^7. In addition, the “In vivo IVIS” value with mice (setting [2]) is reported as 1.61 × 10^8. In data set [1], the “Particle size (nm)” value amounted to 97.72 ± 1.19 nm and the PDI is recorded as 0.22 ± 0.02.

Consider `CCCCCCCCCCNC(=O)C(O)CN(CCCN1CCN(CCCN(CC(O)C(=O)NCCCCCCCCCC)CC(O)C(=O)NCCCCCCCCCC)CC1)CC(O)C(=O)NCCCCCCCCCC` (stereo not shown) [Compound L0189], for which the “In vivo IVIS” value in the data set with mice (Table 2, IM, whole body scan) was 2.16 × 10^6; in the data set with mice (setting [2]), 3.12 × 10^7. Also, the “Particle size (nm)” value in data set [1] (setting [12]) came out at 106.80 ± 0.85 nm; in data set [1] (setting [13]) it was 85.92 ± 0.69 nm. Further, the PDI in data set [1] (setting [12]) is given as 0.06 ± 0.04; in data set [1] (setting [13]), 0.07 ± 0.02.

For `CCCCCCCCCCCCNC(=O)C(O)CN(CCCN1CCN(CCCN(CC(O)C(=O)NCCCCCCCCCCCC)CC(O)C(=O)NCCCCCCCCCCCC)CC1)CC(O)C(=O)NCCCCCCCCCCCC` (stereo not shown) [Compound L0190], the “In vivo IVIS” value with mice (Table 2, IM, whole body scan) is 1.19 × 10^6. In data set [1], the “Particle size (nm)” value turned out to be 121.87 ± 2.71 nm and the PDI is listed as 0.20 ± 0.01.

`CCCCCCCCCCCCNC(=O)C(O)CN(CC(=O)NCCCN1CCN(CCCNC(=O)CN(CC(O)C(=O)NCCCCCCCCCCCC)CC(O)C(=O)NCCCCCCCCCCCC)CC1)CC(O)C(=O)NCCCCCCCCCCCC` (stereo not shown) [Compound L0193]: in the data set on mice (Table 2, IM, whole body scan), the “In vivo IVIS” value is given as 2.43 × 10^5. Moreover, the “In vivo IVIS” value with mice (setting [2]) was 4.33 × 10^5. For the same molecule, in data set [1], the “Particle size (nm)” value is on record as 93.86 ± 0.59 nm and the PDI stood at 0.11 ± 0.02.

On to `CCCCCCCCCCCCNC(=O)C(O)CN(CCC(=O)NCCCN1CCN(CCCNC(=O)CCN(CC(O)C(=O)NCCCCCCCCCCCC)CC(O)C(=O)NCCCCCCCCCCCC)CC1)CC(O)C(=O)NCCCCCCCCCCCC` (stereo not shown) [Compound L0194], for which the “In vivo IVIS” value with mice (Table 2, IM, whole body scan) is reported as 1.08 × 10^6; in the data set on mice (setting [2]), 2.14 × 10^5. Also, in data set [1], the “Particle size (nm)” value came to 109.10 ± 0.50 nm. The PDI in data set [1] is on record as 0.13 ± 0.00.

Consider `CCCCCCCCCCCCNC(=O)C(O)CN(CCCC(=O)NCCCN1CCN(CCCNC(=O)CCCN(CC(O)C(=O)NCCCCCCCCCCCC)CC(O)C(=O)NCCCCCCCCCCCC)CC1)CC(O)C(=O)NCCCCCCCCCCCC` (stereo not shown) [Compound L0195], for which the “In vivo IVIS” value is recorded as 6.81 × 10^5 in the data set on mice (Table 2, IM, whole body scan) and 4.54 × 10^5 in the data set with mice (setting [2]). Moreover, the “Particle size (nm)” value in data set [1] was determined as 90.79 ± 0.65 nm. In data set [1], this molecule registered a PDI of 0.17 ± 0.02.

Turning to `CCCCCCC(CCCCCC)C(=O)OCCCCOC(=O)C(O)CN(CCCN1CCN(CCCN(CC(O)C(=O)OCCCCOC(=O)C(CCCCCC)CCCCCC)CC(O)C(=O)OCCCCOC(=O)C(CCCCCC)CCCCCC)CC1)CC(O)C(=O)OCCCCOC(=O)C(CCCCCC)CCCCCC` (stereo not shown) [Compound L0196], the “In vivo IVIS” value with mice (Table 2, IM, whole body scan) is 1.82 × 10^8. For the same molecule, the “In vivo IVIS” value in the data set on mice (setting [2]) is given as 2.00 × 10^9. Also, the “in vivo delivery efficiency as compared to the benchmark compound SM102” value with mice (certain formulations, Table 2) is reported as “superior in vivo delivery efficiency”. Further, in data set [1], the “Particle size (nm)” value is given as 89.18 ± 0.22 nm and the PDI is 0.11 ± 0.01.

For `CCCCCCCCC(CCCCCC)C(=O)OCCCCCCOC(=O)C(O)CN(CCCN1CCN(CCCN(CC(O)C(=O)OCCCCCCOC(=O)C(CCCCCC)CCCCCCCC)CC(O)C(=O)OCCCCCCOC(=O)C(CCCCCC)CCCCCCCC)CC1)CC(O)C(=O)OCCCCCCOC(=O)C(CCCCCC)CCCCCCCC` (stereo not shown) [Compound L0197], the “In vivo IVIS” value in the data set on mice (Table 2, IM, whole body scan) was 3.81 × 10^6. For the same molecule, in the data set with mice (Table 2, IV), the “In vivo IVIS (liver)” value is recorded as 2.34 × 10^6 and the “In vivo IVIS (spleen)” value is listed as 7.26 × 10^7. In addition, in the data set with mice (setting [2]), the “In vivo IVIS” value is 5.97 × 10^8. In data set [1], the “Particle size (nm)” value was 102.47 ± 0.25 nm and the PDI is listed as 0.13 ± 0.02.

Consider `CCCCCCCCCCNC(=O)C(O)CN(CCN1CCN(CCN(CC(O)C(=O)NCCCCCCCCCC)CC(O)C(=O)NCCCCCCCCCC)CC1)CCN(CC(O)C(=O)NCCCCCCCCCC)CC(O)C(=O)NCCCCCCCCCC` (stereo not shown) [Compound L0198], for which the “In vivo IVIS” value in the data set with mice (Table 2, IM, whole body scan) is given as 9.58 × 10^6. The “In vivo IVIS” value in the data set on mice (setting [2]) is listed as 4.61 × 10^7. In data set [1], the “Particle size (nm)” value was 90.47 ± 0.74 nm and the PDI came out at 0.17 ± 0.01.

For the molecule `CCCCCCCCCCCCOC(=O)CCN(CCCN1CCN(CCCN(CCC(=O)OCCCCCCCCCCCC)CCC(=O)OCCCCCCCCCCCC)CC1)CCC(=O)OCCCCCCCCCCCC` [L0191-Control, reference compound], the “delivery efficiency, times lower than the hydroxy compound (L0191 or L0199)” value in the data set on mice (IM administration) is on record as approximately 20 times; in the data set on mice (IV administration), “about 420 times”. Further, the “In vivo IVIS” value is recorded as 1.07 × 10^6 in the data set on mice (Table 4, IM) and 2.30 × 10^6 in the data set on mice (Table 4, IV).
